In brackets after ≈: the same amount, converted by molar mass.
Key:
Experiment in all cases: In-vitro antifungal spectrum and MIC, clinical isolates
Format in all cases: cell-based
Penicillium marneffei = settings: for MIC: in µg/mL (unit assumed)
Description: (§1) The experiments were carried out to determine antifungal spectrum and MIC of Nanosomal Amphotericin B vis-à-vis commonly used antifungals viz.
(§2) Amphotericin B, Voriconazole, Itraconazole and Fluconazole to ascertain efficacy against pathogenic yeasts and moulds including dermatophytes.

Candida albicans = settings: for MIC: in µg/mL (unit assumed)
Description: as §1, §2

Aspergillus oryzae = settings: for MIC: in µg/mL (unit assumed)
Description: as §1, §2

Mucor spp. = settings: for MIC: in µg/mL (unit assumed)
Description: as §1, §2

Apophysomyces elegans = settings: for MIC: unit assumed
Description: as §1, §2

Absidia corymbifera = settings: for MIC: in µg/mL (unit assumed)
Description: as §1, §2

Curvularia spp. = settings: for MIC: in µg/mL (unit assumed)
Description: as §1, §2

Pseudallescheria boydii = settings: for MIC: in µg/mL (unit assumed)
Description: as §1, §2

Paeciliomyces spp. = settings: for MIC: in µg/mL (unit assumed)
Description: as §1, §2

Microsporum gypseum = settings: for MIC: in µg/mL (unit assumed)
Description: as §1, §2

[1] = test system: Aspergillus flavus, A. fumigatus; settings: for MIC: in µg/mL (unit assumed)
Description: as §1, §2

[2] = test system: Cladophialophora bantiana; settings: for MIC: in µg/mL (unit assumed)
Description: as §1, §2

[3] = test system: Rhizopus arrhizus, R. pusilus; settings: for MIC: in µg/mL (unit assumed)
Description: as §1, §2

Cryptococcus neoformans = settings: for MIC: in µg/mL (unit assumed)
Description: as §1, §2

Phialophora verrucosa = settings: for MIC: unit assumed
Description: as §1, §2

Alternaria spp. = settings: for MIC: in µg/mL (unit assumed)
Description: as §1, §2

Trichophyton rubrum = settings: for MIC: in µg/mL (unit assumed)
Description: as §1, §2

Fusarium spp. = settings: for MIC: in µg/mL (unit assumed)
Description: as §1, §2

Scytalidum dimidatum = settings: for MIC: unit assumed
Description: as §1, §2

Sporothrix schenckii = settings: for MIC: in µg/mL (unit assumed)
Description: as §1, §2

[4] = test system: Trichophyton mentagrophytes; settings: for MIC: in µg/mL (unit assumed)
Description: as §1, §2

SMILES: CCC(C)n1ncn(-c2ccc(N3CCN(c4ccc(OCC5COC(Cn6cncn6)(c6ccc(Cl)cc6Cl)O5)cc4)CC3)cc2)c1=O (centres unmarked) [Itraconazole]
- Susceptibility category (Penicillium marneffei): Active
- MIC (Penicillium marneffei): 1-2
- MIC (Candida albicans): 0.03-8
- Susceptibility category (Aspergillus oryzae): Active
- MIC (Aspergillus oryzae): 0.125-0.5
- MIC (Mucor spp.): 0.03-8
- MIC (Apophysomyces elegans): 16 µg/mL (≈ 22.7 µM)
- MIC (Absidia corymbifera): 16
- MIC (Curvularia spp.): 8-16
- Susceptibility category (Pseudallescheria boydii): Active
- MIC (Paeciliomyces spp.): 0.06-16
- Susceptibility category (Microsporum gypseum): Active
- MIC (Microsporum gypseum): 0.25-0.5
- MIC [1]: 0.03-16
- Susceptibility category [2]: Active
- MIC [2]: 0.5-2
- MIC [3]: 8-16
- MIC (Cryptococcus neoformans): 0.03-4
- MIC (Phialophora verrucosa): 16 µg/mL (≈ 22.7 µM)
- Susceptibility category (Alternaria spp.): Active
- MIC (Alternaria spp.): 1-2
- MIC (Trichophyton rubrum): 8-16
- MIC (Fusarium spp.): 8-32
- MIC (Scytalidum dimidatum): 16 µg/mL (≈ 22.7 µM)
- MIC (Sporothrix schenckii): 0.03-16
- Susceptibility category [4]: Active
- MIC [4]: 1-2

SMILES: OC(Cn1cncn1)(Cn1cncn1)c1ccc(F)cc1F [Fluconazole]
- Susceptibility category (Penicillium marneffei): Resistant
- MIC (Penicillium marneffei): 32-64
- Susceptibility category (Candida albicans): Variable
- MIC (Candida albicans): 0.125-64
- Susceptibility category (Aspergillus oryzae): Resistant
- MIC (Aspergillus oryzae): 64
- Susceptibility category (Mucor spp.): Resistant
- MIC (Mucor spp.): 64
- Susceptibility category (Apophysomyces elegans): Resistant
- MIC (Apophysomyces elegans): 64 µg/mL (≈ 209 µM)
- Susceptibility category (Absidia corymbifera): Resistant
- MIC (Absidia corymbifera): 64
- Susceptibility category (Curvularia spp.): Resistant
- MIC (Curvularia spp.): 8-64
- Susceptibility category (Pseudallescheria boydii): Resistant
- MIC (Pseudallescheria boydii): 8-32
- Susceptibility category (Paeciliomyces spp.): Resistant
- MIC (Paeciliomyces spp.): 64
- Susceptibility category (Microsporum gypseum): Resistant
- MIC (Microsporum gypseum): 64
- Susceptibility category [1]: Resistant
- MIC [1]: 32-64
- Susceptibility category [2]: Resistant
- MIC [2]: 32-64
- Susceptibility category [3]: Resistant
- MIC [3]: 8-64
- Susceptibility category (Cryptococcus neoformans): Variable
- MIC (Cryptococcus neoformans): 0.125-16
- Susceptibility category (Phialophora verrucosa): Resistant
- MIC (Phialophora verrucosa): 16 µg/mL (≈ 52.2 µM)
- Susceptibility category (Alternaria spp.): Resistant
- MIC (Alternaria spp.): 32-64
- Susceptibility category (Trichophyton rubrum): Variable/Resistant
- MIC (Trichophyton rubrum): 4-32
- Susceptibility category (Fusarium spp.): Resistant
- MIC (Fusarium spp.): 16-64
- Susceptibility category (Scytalidum dimidatum): Resistant
- MIC (Scytalidum dimidatum): 32 µg/mL (≈ 104 µM)
- Susceptibility category (Sporothrix schenckii): Resistant
- MIC (Sporothrix schenckii): 8-64
- Susceptibility category [4]: Resistant
- MIC [4]: 32-64

SMILES: C[C@@H]1[C@H](O)[C@@H](C)/C=C/C=C/C=C/C=C/C=C/C=C/C=C/[C@H](O[C@@H]2O[C@H](C)[C@@H](O)[C@H](N)[C@@H]2O)C[C@@H]2O[C@](O)(C[C@@H](O)C[C@@H](O)[C@H](O)CC[C@@H](O)C[C@@H](O)CC(=O)O[C@H]1C)C[C@H](O)[C@H]2C(=O)O [Amphotericin B]
- Susceptibility category (Penicillium marneffei): Active
- MIC (Penicillium marneffei): 0.25-1
- Susceptibility category (Candida albicans): Active
- MIC (Candida albicans): 0.125-1
- Susceptibility category (Aspergillus oryzae): Intermediate
- MIC (Aspergillus oryzae): 2-4
- Susceptibility category (Mucor spp.): Active
- MIC (Mucor spp.): 1-2
- Susceptibility category (Apophysomyces elegans): Active
- MIC (Apophysomyces elegans): 2 µg/mL (≈ 2.16 µM)
- Susceptibility category (Absidia corymbifera): Active
- MIC (Absidia corymbifera): 0.5
- Susceptibility category (Curvularia spp.): Active
- MIC (Curvularia spp.): 0.125-1
- Susceptibility category (Pseudallescheria boydii): Active
- MIC (Pseudallescheria boydii): 0.5-1
- Susceptibility category (Paeciliomyces spp.): Intermediate
- MIC (Paeciliomyces spp.): 1-4
- Susceptibility category (Microsporum gypseum): Active
- MIC (Microsporum gypseum): 0.5
- Susceptibility category [1]: Active
- MIC [1]: 0.5-2
- Susceptibility category [2]: Active
- MIC [2]: 0.5-1
- Susceptibility category [3]: Active
- MIC [3]: 0.5-2
- Susceptibility category (Cryptococcus neoformans): Active
- MIC (Cryptococcus neoformans): 0.25-1
- Susceptibility category (Phialophora verrucosa): Intermediate
- MIC (Phialophora verrucosa): 4 µg/mL (≈ 4.33 µM)
- Susceptibility category (Alternaria spp.): Active
- MIC (Alternaria spp.): 1-2
- Susceptibility category (Trichophyton rubrum): Active
- MIC (Trichophyton rubrum): 0.25-1
- Susceptibility category (Fusarium spp.): Active
- MIC (Fusarium spp.): 0.5-1
- Susceptibility category (Scytalidum dimidatum): Active
- MIC (Scytalidum dimidatum): 0.5 µg/mL (≈ 0.541 µM)
- Susceptibility category (Sporothrix schenckii): Active
- MIC (Sporothrix schenckii): 0.5-1
- Susceptibility category [4]: Active
- MIC [4]: 0.5-2

SMILES: C[C@@H](c1ncncc1F)[C@](O)(Cn1cncn1)c1ccc(F)cc1F [Voriconazole]
- Susceptibility category (Penicillium marneffei): Active
- MIC (Penicillium marneffei): 0.25-1
- Susceptibility category (Candida albicans): Variable
- MIC (Candida albicans): 0.03-8
- Susceptibility category (Aspergillus oryzae): Intermediate
- MIC (Aspergillus oryzae): 0.5-4
- Susceptibility category (Mucor spp.): Resistant
- MIC (Mucor spp.): 8-16
- Susceptibility category (Apophysomyces elegans): Intermediate
- MIC (Apophysomyces elegans): 8 µg/mL (≈ 22.9 µM)
- Susceptibility category (Absidia corymbifera): Variable
- MIC (Absidia corymbifera): 2-16
- Susceptibility category (Curvularia spp.): Active
- MIC (Curvularia spp.): 1-2
- Susceptibility category (Pseudallescheria boydii): Active
- Susceptibility category (Paeciliomyces spp.): Variable
- MIC (Paeciliomyces spp.): 0.125-8
- Susceptibility category (Microsporum gypseum): Active
- MIC (Microsporum gypseum): 0.125-0.5
- Susceptibility category [1]: Active
- MIC [1]: 0.125-1
- Susceptibility category [2]: Active
- MIC [2]: 0.25-2
- Susceptibility category [3]: Variable
- MIC [3]: 1-8
- Susceptibility category (Cryptococcus neoformans): Variable
- MIC (Cryptococcus neoformans): 0.03-16
- Susceptibility category (Phialophora verrucosa): Active
- MIC (Phialophora verrucosa): 1 µg/mL (≈ 2.86 µM)
- Susceptibility category (Alternaria spp.): Active
- MIC (Alternaria spp.): 0.5-1
- Susceptibility category (Trichophyton rubrum): Active
- MIC (Trichophyton rubrum): 0.25-0.5
- Susceptibility category (Fusarium spp.): Intermediate
- MIC (Fusarium spp.): 0.5-4
- Susceptibility category (Scytalidum dimidatum): Active
- MIC (Scytalidum dimidatum): 0.5 µg/mL (≈ 1.43 µM)
- Susceptibility category (Sporothrix schenckii): Variable
- MIC (Sporothrix schenckii): 0.03-16
- Susceptibility category [4]: Active
- MIC [4]: 0.5-1

— patent US8883748B2, “Formulation for treating fungal infection” (Lifecare Innovations Pvt. Ltd., priority 2009, dated 2014)
